Results as given in ChEMBL document CHEMBL3137667, “[Drug-induced liver injury; fourteenth updated edition of the bibliographic database of liver injuries and related drugs]” (Gastroenterol Clin Biol, 2004).
*1 amine or outer side, *2 acyl side, *3 side chain or, on linkers, in order; H or OH if unused. Where a SMILES comes first, the peptide text is derived from it. Bridges are numbered along the chain shown (N, C = ends). Roman numbers before positions name the chains, in order. [ ]: non-standard residue; d: D form. Actinocin(9to1) = Cc1c2oc3c(C)ccc(C(=O)[*:1])c3nc-2c(C(=O)[*:2])c(N)c1=O; NMeV = CN[C@H](C(=O)O)C(C)C; Sar = CNCC(=O)O

Assays:
[1] = human
[2] = Highest frequency of acute liver toxicity observed during clinical trials, expressed as a percentage. [column '% AIGUE' in source]; conditions: human
[3] = human; remark: listed apart in the source
[4] = Times to onset, minimal and maximal, observed in the indexed observations. [column 'DELAI' in source]; conditions: human
[5] = Highest frequency of moderate liver toxicity observed during clinical trials, expressed as a percentage. [column '% BIOL' in source]; conditions: human
[6] = Comments (NB not yet translated). [column 'COMMENTAIRES' in source]; conditions: human
[7] = Proposed mechanism(s) of liver damage. [column 'MEC' in source]; conditions: human
[8] = human; remark: listed apart in the source
[9] = human; remark: listed apart in the source
[10] = human, serum
[11] = human; remark: listed apart in the source
[12] = human; remark: listed apart in the source
[13] = human; remark: listed apart in the source
[14] = human; remark: listed apart in the source
[15] = Presence of at least one case with successful reintroduction. [column 'REINT' in source]; conditions: human
[16] = human; remark: listed apart in the source
[17] = human, serum, 4383 h
[18] = human, serum; remark: listed apart in the source
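Wherever Hepatotoxicity (association with vascular disease) is given: count of indexed literature references reporting vascular liver injury in humans, e.g. peliosis hepatitis, hepatic veno-occlusive disease or Budd-Chiari syndrome.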
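Wherever Hepatotoxicity (benign tumour) is given: value is a count of indexed literature references citing a benign tumour confirmed by histopathology.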
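Wherever Hepatotoxicity (choleostasis) is given: human cholestatic liver injury, shown by histopathology or by peak ALT or AST elevation over alkaline phosphatase ratio below 2, value counts indexed literature reports.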
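Wherever Hepatotoxicity (chronic liver disease) is given: chronic liver injury confirmed by histopathology or persistently raised serum aminotransferase activity beyond 6 months, value given as the count of indexed literature references.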
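Wherever Hepatotoxicity (cirrhosis) is given: value is a count of indexed literature references reporting cirrhosis confirmed by histopathology.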
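Wherever Hepatotoxicity (cytolytic) is given: human cytolytic liver injury, shown by histopathology or by a ratio above 5 of peak ALT or AST elevation to alkaline phosphatase elevation, value counts indexed references.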
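Wherever Hepatotoxicity (granulomatous hepatitis) is given: value is a count of indexed literature references reporting granulomatous liver disease confirmed by histopathology.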
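Wherever Hepatotoxicity (malignant tumour) is given: malignant tumour confirmed by histopathology, value gives the count of indexed literature references reporting it.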
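Wherever Hepatotoxicity (severe hepatitis) is given: human clinical data: severe hepatitis, meaning potentially life-threatening liver failure or clinically observed cases, the value counts how many indexed literature references report it.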
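Wherever Hepatotoxicity (steatosis) is given: steatosis confirmed by histopathology, value is the count of indexed references.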

SMILES | Hepatotoxicity (choleostasis) [1] | Hepatotoxicity (benign tumour) [3] | Hepatotoxicity (time to onset) [4] | Hepatotoxicity (comment) [6] | Hepatotoxicity (mechanism) [7] | Hepatotoxicity (cytolytic) [8] | Hepatotoxicity (steatosis) [9] | Hepatotoxicity (moderate) [10] | Hepatotoxicity (malignant tumour) [12] | Hepatotoxicity (granulomatous hepatitis) [13] | Hepatotoxicity (cirrhosis) [14] | Hepatotoxicity (successful reintroduction) [15] | Hepatotoxicity (association with vascular disease) [16] | Hepatotoxicity (chronic liver disease) [17] | Hepatotoxicity (acute) [18] | Hepatotoxicity (acute) [2] [%] | Hepatotoxicity (moderate) [5] [%] | Hepatotoxicity (severe hepatitis) [11] | other results
NC(=O)N1c2ccccc2C=Cc2ccccc21 [CARBAMAZEPINE] | 41 | 0 | 1 day - 8 years | AC_ANTI-M/-N/-ML CHOLANGITE DUCTOPENIE #CBP REACTIVATION_HSV6 | Allergic, Reactive metabolite | 38 | 2 | 40 | 1 | 12 | 1 | yes | 0 | 4 | 73 | – | – | – | Hepatotoxicity (acute) ([2]; Liver): 0.2%; Hepatotoxicity (moderate) ([5]; Liver): 23.8%; Hepatotoxicity (severe hepatitis) ([11]; Liver): 10
CC1(C)S[C@@H]2[C@H](NC(=O)C(C(=O)O)c3ccccc3)C(=O)N2[C@H]1C(=O)O (stereo partly drawn) [CARBENICILLIN] | 0 | 0 | 4 days - 3 months | RC/TICARCILLINE | Dose-dependant | 5 | 0 | 13 | 0 | 0 | 0 | yes | 0 | 0 | 5 | 0.7 | 56 | 0 | –
CCOC(=O)n1ccn(C)c1=S [CARBIMAZOLE] | 14 | 0 | 1 day - 5 years | RC/METHIMAZOLE/BENZYLTHIOURACILE | Allergic | 5 | 2 | 2 | 0 | 1 | 0 | yes | 0 | 0 | 18 | 0 | 0 | 3 | –
CC(=O)OCC1=C(C(=O)O)N2C(=O)[C@@H](NC(=O)CSc3ccncc3)[C@H]2SC1 [CEPHAPIRIN] | 1 | 0 | 1 week | RC/CEFALOTINE | Allergic | 0 | 0 | 0 | 0 | 0 | 0 | yes | 0 | 0 | 1 | 0 | 0 | 0 | –
O=C(O)COCCN1CCN(C(c2ccccc2)c2ccc(Cl)cc2)CC1 (stereo not drawn) [CETIRIZINE] | 1 | 0 | 1 day - 2 years | AC_ANTI-MFR1 | Allergic | 4 | 0 | 1 | 0 | 0 | 0 | yes | 0 | 0 | 5 | – | – | – | Hepatotoxicity (acute) ([2]; Liver): 0%; Hepatotoxicity (moderate) ([5]; Liver): 3.8%; Hepatotoxicity (severe hepatitis) ([11]; Liver): 0
O=C(O)CCCc1ccc(N(CCCl)CCCl)cc1 [CHLORAMBUCIL] | 3 | 0 | 2 weeks - 25 months | PERICHOLANGITE REACTIVATION_HVB | Allergic | 4 | 0 | 1 | 1 | 0 | 1 | yes | 0 | 1 | 7 | 4.8 | 5.3 | 1 | –
CCCNC(=O)NS(=O)(=O)c1ccc(Cl)cc1 [CHLORPROPAMIDE] | 29 | 0 | 2 weeks - 2 years | RC/TOLBUTAMIDE/TOLAZAMIDE #CBP | Allergic, Dose-dependant | 9 | 0 | 3 | 0 | 4 | 0 | yes | 0 | 0 | 34 | 0.5 | 25 | 1 | –
COc1ccc2c(C(=O)c3ccc(Cl)cc3)c(C)n(CC(=O)O)c2c1 [CLOMETACIN] | 12 | 0 | 1 week - 10 years | AC_ANTI-ADN/-ML HLAB8 | Allergic | 14 | 0 | 6 | 0 | 0 | 9 | yes | 0 | 21 | 18 | 0 | 0 | 9 | –
Nc1ccn([C@@H]2O[C@H](CO)[C@@H](O)[C@@H]2O)c(=O)n1 [CYTARABINE] | – | 0 | 1 cure - 2 cures | HCF HNR REACTIVATION_HVB MVO | – | – | 0 | 33 | 0 | – | 0 | yes | 7 | 0 | 14 | – | – | – | Hepatotoxicity (choleostasis) ([1]; Liver): 3; Hepatotoxicity (acute) ([2]; Liver): 28.6%; Hepatotoxicity (moderate) ([5]; Liver): 75%; Hepatotoxicity (mechanism) ([7]; Liver): Dose-dependant; Hepatotoxicity (cytolytic) ([8]; Liver): 6; Hepatotoxicity (severe hepatitis) ([11]; Liver): 6; Hepatotoxicity (granulomatous hepatitis) ([13]; Liver): 0
Cc1c2oc3c(C)ccc(C(=O)N[C@@H]4C(=O)N[C@H](C(C)C)C(=O)N5CCC[C@H]5C(=O)N(C)CC(=O)N(C)[C@@H](C(C)C)C(=O)O[C@@H]4C)c3nc-2c(C(=O)N[C@@H]2C(=O)N[C@H](C(C)C)C(=O)N3CCC[C@H]3C(=O)N(C)CC(=O)N(C)[C@@H](C(C)C)C(=O)O[C@@H]2C)c(N)c1=O [DACTINOMYCIN] (I: T[dV]P[Sar][NMeV] / II: T[dV]P[Sar][NMeV]; ester I:1-I:C, II:1-II:C; linker I:N-II:N via Actinocin(9to1)) | 0 | 1 | 3 weeks - 2 months | I/RADIOTHERAPIE HNR | Dose-dependant | 5 | 0 | 8 | 0 | 0 | 0 | yes | 16 | 1 | 7 | 8.8 | 12 | 6 | –
C#C[C@]1(O)CC[C@H]2[C@@H]3CCC4=Cc5oncc5C[C@]4(C)[C@H]3CC[C@@]21C [DANAZOL] | 8 | 12 | 3 days - 20 years | HNF | Dose-dependant | 6 | 0 | 32 | 5 | 0 | 0 | yes | 2 | 0 | 13 | 9.4 | 42.1 | 2 | –
